{"source": "patent US12485106B2", "about": "“Methods of treating fibrotic liver diseases or conditions with indeglitazar” (PLEIOGENIX INC., priority 2023, dated 2025)", "key": {"[1]": {"tested_on": "NASH", "details": "human, in vivo; cited from earlier work"}, "[2]": {"tested_on": "alcoholic hepatitis", "details": "human, in vivo; cited from earlier work"}, "[3]": {"tested_on": "mouse model of human alcoholic hepatitis", "assay": "AH (NIAAA) mouse model, 8-week efficacy and safety study, alone and with prednisolone", "from_the_text": "Mice were fed with the ethanol diet for four weeks, followed by 4 weeks of intervention (8 weeks total treatment).\nLivers were collected at the end-point from all mice and weighed. Liver samples were processed for histology to assess steatosis, inflammatory infiltrates and fibrosis. Briefly, liver tissue was fixed in 4% paraformaldehyde and paraffin-embedded, sectioned into 5 m thickness, and stained with hematoxylin-eosin (H&E), Oil-Red O staining, and Masson's trichrome staining.\nSafety testing: The safety of indeglitazar treatment was assessed by body weight measurements and full necropsy at endpoint. Mice were terminated from the experiment by isoflurane anesthesia and blood was collected by a cardiac bleed into EDTA-treated tubes, and then centrifuged to obtain plasma to conduct clinical chemistry including full liver and renal toxicology panel. A portion of the liver was analyzed for liver triglycerides and cholesterol levels by biochemical assays. […] Hearts were weighted and fixed in 10% NBF, paraffin embedded, and sectioned into 4-μm thick slices. H&E staining was used to investigate myocardial cell hypertrophy, and ventricle diameters by microscopy."}, "[4]": {"details": "indeglitazar 50 mg/kg, prednisolone 10 mg/kg, vs EtOH-treated vehicle control"}, "[5]": {"details": "indeglitazar 50 mg/kg, prednisolone 10 mg/kg, vs ethanol-treated vehicle control"}, "[6]": {"details": "indeglitazar 50 mg/kg, prednisolone 10 mg/kg, vs vehicle+EtOH"}, "[7]": {"details": "indeglitazar 50 mg/kg/day, prednisolone 10 mg/kg/day, vs ethanol-treated vehicle control"}}}
{"compound": "vitamin E", "values": [{"measurement": "improvement of NASH, share of people treated", "setting": "[1]", "result": "about half"}]}
{"compound": "CC(=O)CCCCn1c(=O)c2c(ncn2C)n(C)c1=O", "note": "[pentoxifylline]", "values": [{"measurement": "overall survival and liver damage in AH patients", "setting": "[2]", "result": "failed to improve overall survival or to decrease liver damage"}]}
{"compound": "C[C@]12C=CC(=O)C=C1CC[C@@H]1[C@@H]2[C@@H](O)C[C@@]2(C)[C@H]1CC[C@]2(O)C(=O)CO", "note": "[Prednisolone, prednisolone, reference compound]", "values": [{"measurement": "liver histopathology: steatosis, hepatocellular karyomegaly, and ballooning", "setting": "[3]; indeglitazar 50 mg/kg, prednisolone 10 mg/kg, data not shown", "result": "no significant effect"}, {"measurement": "effect on liver hydroxyproline", "setting": "[3]; [4]", "result": "no significant effect"}, {"measurement": "effect on plasma adiponectin", "setting": "[3]; [4]", "result": "no significant effect"}, {"measurement": "effect on ALT", "setting": "[3]; [5]", "result": "no significant effect"}, {"measurement": "effect on AST", "setting": "[3]; [5]", "result": "no significant effect"}, {"measurement": "effect on total bilirubin", "setting": "[3]; [5]", "result": "increased"}, {"measurement": "decrease of plasma TGFβ", "setting": "[3]; [6]", "result": 56, "unit": "%"}, {"measurement": "increase of adiponectin", "setting": "[3]; [6]", "result": "+3.4%"}, {"measurement": "effect on body weight", "setting": "[3]; [7]", "result": "Neither EtOH (vs no EtOH vehicle control), indeglitazar, or prednisolone had a significant effect"}, {"measurement": "effect on heart weight (actual)", "setting": "[3]; [7]", "result": "Neither EtOH (vs no EtOH vehicle control), indeglitazar, or prednisolone had a significant effect"}, {"measurement": "effect on overall survival", "setting": "[3]; indeglitazar 50 mg/kg/day, prednisolone 10 mg/kg/day, vs ethanol-treated vehicle control, male and female mice", "result": "no significant effect"}, {"measurement": "effect on liver triglycerides", "setting": "[3]; prednisolone 10 mg/kg, vs vehicle+EtOH", "result": "no significant effect"}, {"measurement": "increase of plasma TNF-α", "setting": "[3]; prednisolone 10 mg/kg, vs vehicle+EtOH, P<0.0001", "result": 123, "unit": "%"}, {"measurement": "change of hydroxyproline (signed)", "setting": "[3]; prednisolone 10 mg/kg, vs vehicle+EtOH, P>0.05", "result": "−7", "unit": "%"}]}
